Results on 1 molecule are retold here after patent US7342016B2, “Farnesyl protein transferase inhibitors as antitumor agents” (Schering Corporation, priority 2000, dated 2008).

Where “and” joins values, the source holds several entries; their conditions need not be identical. Equal values may be shown once.

Holding throughout (assay): In vivo anti-tumor study, s.c. tumor in athymic nu/nu female mice, percent inhibition of tumor growth
One assay concerns LOX human melanoma cells. The note with it: po, BID, x1. Here is the method:
(§1) Various tumor cells (5×10^5 to 8×10^6) were innoculated subcutaneously into the flank of 5-6 week old athymic nu/nu female mice. Three tumor cell models were used: mouse fibroblasts transformed with H-Ras; HTB-177 human non small cell lung cancer cells or LOX human melanoma cells. Animals were treated with beta cyclodextran vehicle only or compounds in vehicle twice a day (BID) or once a day (QD) for 7 days per week for 1 (×1), 2 (×2) or 3 (×3) weeks. The percent inhibition of tumor growth relative to vehicle controls were determined by tumor measurements.

In assay [1] the test system is HTB-177 human non small cell lung cancer cells. To be noted: po, x3. The procedure: as §1
Assay [2] has as its system mouse fibroblasts transformed with H-Ras. The note with it: po, x2. The procedure:
as §1

Turning to `Cc1nccn1CC1=Cc2cccnc2C(N2CCN(C(=O)Nc3ccc(C#N)cc3)CC2)c2ccc(Cl)cc21` (stereo not shown) [(372)], the “Average % Tumor Inhibition” value was 20.9% in the assay on LOX human melanoma cells (15 MPK); 54.8% in the assay on LOX human melanoma cells (30 MPK); 90.3% in the assay with LOX human melanoma cells (60 MPK); 43% and 47% in assay [1] (20 MPK, BID); 79% in assay [1] (40 MPK, BID); 11% in assay [1] (40 MPK, QD). Moreover, the “Average % Tumor Inhibition” value in assay [1] (60 MPK, BID) is given as 87%; in assay [1] (80 MPK, BID), 96%; in assay [1] (120 MPK, QD), 54%; in assay [2] (6.6 MPK, BID), 19%; in assay [2] (10 MPK, BID), 70%; in assay [2] (20 MPK, BID), 59%. Also, the “Average % Tumor Inhibition” value in assay [2] (20 MPK, QD) worked out at 55%; in assay [2] (40 MPK, BID), 92%; in assay [2] (60 MPK, BID), 98%; in assay [2] (80 MPK, QD), 91%.
